Here are results for 3 compounds from article PMC4503722, “Novel Phenotypic Outcomes Identified for a Public Collection of Approved Drugs from a Publicly Accessible Panel of Assays” (PLoS ONE, 2015).

A value given as a limit tells only on which side of the number the result lay.

For assay [1], the system named is endothelial tube formation in co-cultures of ECFCs and ADSCs treated with VEGF. Put plainly: cells. Type of assay: cell-based, human.
Assay [2] has as its system nuclear β-catenin in C2C12 cells. Put plainly: cells. Type of assay: cell-based. To be noted: concentration response; for WntCondMedia_bCatenin C2C12 IC50/EC50: assay number 5.
Assay [3] concerns alkaline phosphatase (ALP) activity in C2C12 cells. It is filed as cell-based. To be noted: concentration response; for WntCondMedia_Alk Phos C2C12 IC50/EC50: assay number 6.
The next assay concerns HeLa cells. Put plainly: cells. Type of assay: cell-based. To be noted: for Hela CellCycMod PI 2N IC50/EC50: assay number 14; for Hela CellCycMod PI 4N IC50/EC50: assay number 16; for Hela CellCycMod PI MI IC50/EC50: assay number 17; for Hela CellCycMod PI Cell Number IC50/EC50: assay number 18.
For another assay, the system named is DLD-1. As to the kind of experiment: cells. To be noted: assay number 23. It is filed as cell-based.
The next assay relates to HCT116. As to the kind of experiment: cells. Type of assay: cell-based. The conditions noted are these: basal; for Basal_Viability ATP HCT116 IC50/EC50: assay number 25.
For assay [4], the system named is HCT116 cells treated with a GSK3β inhibitor. Put plainly: cells. It is filed as cell-based. The conditions noted are these: assay number 26; GSK3b inhibitor pretreated.
The next assay concerns HT-29. As to the kind of experiment: cells. Type of assay: cell-based. The conditions noted are these: for Basal_Viability ATP HT-29 IC50/EC50: assay number 28.
Another assay deals with RKO. Put plainly: cells. It is filed as cell-based. To be noted: for Basal_Viability ATP RKO IC50/EC50: assay number 29.
The test system of the next assay is SNU-C1. Put plainly: cells. The conditions noted are these: for Basal_Viability ATP SNU-C1 IC50/EC50: assay number 30. Type of assay: cell-based.
A further assay has as its target T1, hp70S6K1 (RPS6KB1) (Homo sapiens, UniProt P23443).
T1 construct: purchased Cerep (LANCE kinase assay platform, contract assay)
As to the kind of experiment: Cerep LANCE kinase assay hp70S6K1 (S1 assay 31). It is filed as biochemical. The conditions noted are these: for hp70S6K1 LANCE IC50/EC50: assay number 31.

A further assay addresses T2, hKDR (Homo sapiens, UniProt P35968).
T2 construct: purchased Cerep (LANCE kinase assay platform, contract assay)
Put plainly: Cerep LANCE kinase assay hKDR (S1 assay 32). To be noted: for hKDR LANCE IC50/EC50: assay number 32. It is filed as biochemical. A general note: Time-resolved FRET reads energy transfer from a long-lived donor to a nearby acceptor.

A further assay has as its target T3, hJAK2 (Homo sapiens, UniProt O60674).
T3 construct: purchased Cerep (LANCE kinase assay platform, contract assay)
As to the kind of experiment: Cerep LANCE kinase assay hJAK2 (S1 assay 33). It is filed as biochemical. To be noted: for hJAK2 LANCE IC50/EC50: assay number 33.

The target in the next assay is T4, hGSK3b (Homo sapiens, UniProt P49841).
T4 construct: purchased Cerep (LANCE kinase assay platform, contract assay)
T4 sequence (P49841 whole entry): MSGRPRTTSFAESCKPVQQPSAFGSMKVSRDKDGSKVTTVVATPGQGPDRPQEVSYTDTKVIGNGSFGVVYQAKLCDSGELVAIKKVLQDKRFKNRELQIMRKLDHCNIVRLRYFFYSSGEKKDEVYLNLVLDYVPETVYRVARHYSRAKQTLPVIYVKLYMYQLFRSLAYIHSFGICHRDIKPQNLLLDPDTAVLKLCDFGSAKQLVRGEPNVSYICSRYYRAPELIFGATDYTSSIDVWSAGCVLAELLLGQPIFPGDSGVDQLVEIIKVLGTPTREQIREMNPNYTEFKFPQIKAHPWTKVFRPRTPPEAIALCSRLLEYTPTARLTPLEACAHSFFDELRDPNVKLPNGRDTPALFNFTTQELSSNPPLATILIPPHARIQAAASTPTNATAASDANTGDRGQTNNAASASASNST
Put plainly: Cerep LANCE kinase assay hGSK3b (S1 assay 34). To be noted: for hGSK3b LANCE IC50/EC50: assay number 34. It is filed as biochemical.

Another assay has as its target T5, hFLT3 (Homo sapiens, UniProt P36888).
T5 construct: purchased Cerep (LANCE kinase assay platform, contract assay)
Put plainly: Cerep LANCE kinase assay hFLT3 (S1 assay 35). Type of assay: biochemical. To be noted: for hFLT3 LANCE IC50/EC50: assay number 35.

The subject of assay [5] is ECFC/ADSC co-culture cell nuclei number.
The test system of another assay is SW480. Put plainly: cells. It is filed as cell-based. The conditions noted are these: basal.
Another assay deals with Colo320. As to the kind of experiment: cells. It is filed as cell-based. The conditions noted are these: basal.

T2 sequence (P35968 20-1356): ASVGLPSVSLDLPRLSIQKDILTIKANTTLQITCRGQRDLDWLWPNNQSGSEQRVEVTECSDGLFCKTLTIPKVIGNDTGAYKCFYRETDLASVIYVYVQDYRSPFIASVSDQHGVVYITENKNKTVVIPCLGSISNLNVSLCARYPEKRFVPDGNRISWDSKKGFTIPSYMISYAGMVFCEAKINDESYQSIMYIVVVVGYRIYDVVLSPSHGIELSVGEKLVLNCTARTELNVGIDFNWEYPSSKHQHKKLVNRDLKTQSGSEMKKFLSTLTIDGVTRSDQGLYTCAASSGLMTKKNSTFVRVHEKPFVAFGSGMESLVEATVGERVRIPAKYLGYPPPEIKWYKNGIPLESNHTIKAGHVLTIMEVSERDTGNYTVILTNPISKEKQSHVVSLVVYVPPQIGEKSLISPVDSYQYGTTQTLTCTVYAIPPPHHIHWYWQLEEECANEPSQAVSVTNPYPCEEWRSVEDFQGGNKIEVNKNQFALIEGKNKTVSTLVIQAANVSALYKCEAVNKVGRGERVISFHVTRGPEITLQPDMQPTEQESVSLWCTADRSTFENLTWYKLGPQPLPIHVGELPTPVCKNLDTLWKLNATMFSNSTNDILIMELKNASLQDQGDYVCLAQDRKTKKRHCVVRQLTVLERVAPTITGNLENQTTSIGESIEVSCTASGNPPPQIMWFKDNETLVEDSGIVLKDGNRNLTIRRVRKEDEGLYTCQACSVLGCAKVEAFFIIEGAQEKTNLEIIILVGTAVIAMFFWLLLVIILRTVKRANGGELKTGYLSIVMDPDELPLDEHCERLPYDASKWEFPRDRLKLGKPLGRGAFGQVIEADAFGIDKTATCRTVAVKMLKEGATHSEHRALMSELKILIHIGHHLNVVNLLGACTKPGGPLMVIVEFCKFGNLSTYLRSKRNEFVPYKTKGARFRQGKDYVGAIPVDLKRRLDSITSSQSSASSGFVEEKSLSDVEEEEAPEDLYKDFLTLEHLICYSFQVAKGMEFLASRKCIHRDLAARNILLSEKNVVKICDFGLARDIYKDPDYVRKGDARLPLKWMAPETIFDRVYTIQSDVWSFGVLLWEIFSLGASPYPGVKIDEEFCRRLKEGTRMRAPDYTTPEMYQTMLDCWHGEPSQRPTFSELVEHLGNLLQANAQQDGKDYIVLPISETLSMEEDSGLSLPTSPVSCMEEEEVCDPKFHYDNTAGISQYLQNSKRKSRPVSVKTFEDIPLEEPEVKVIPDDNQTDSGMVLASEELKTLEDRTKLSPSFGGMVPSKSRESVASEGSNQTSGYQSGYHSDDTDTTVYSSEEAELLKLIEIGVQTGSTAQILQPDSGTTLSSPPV
T3 sequence (O60674 whole entry): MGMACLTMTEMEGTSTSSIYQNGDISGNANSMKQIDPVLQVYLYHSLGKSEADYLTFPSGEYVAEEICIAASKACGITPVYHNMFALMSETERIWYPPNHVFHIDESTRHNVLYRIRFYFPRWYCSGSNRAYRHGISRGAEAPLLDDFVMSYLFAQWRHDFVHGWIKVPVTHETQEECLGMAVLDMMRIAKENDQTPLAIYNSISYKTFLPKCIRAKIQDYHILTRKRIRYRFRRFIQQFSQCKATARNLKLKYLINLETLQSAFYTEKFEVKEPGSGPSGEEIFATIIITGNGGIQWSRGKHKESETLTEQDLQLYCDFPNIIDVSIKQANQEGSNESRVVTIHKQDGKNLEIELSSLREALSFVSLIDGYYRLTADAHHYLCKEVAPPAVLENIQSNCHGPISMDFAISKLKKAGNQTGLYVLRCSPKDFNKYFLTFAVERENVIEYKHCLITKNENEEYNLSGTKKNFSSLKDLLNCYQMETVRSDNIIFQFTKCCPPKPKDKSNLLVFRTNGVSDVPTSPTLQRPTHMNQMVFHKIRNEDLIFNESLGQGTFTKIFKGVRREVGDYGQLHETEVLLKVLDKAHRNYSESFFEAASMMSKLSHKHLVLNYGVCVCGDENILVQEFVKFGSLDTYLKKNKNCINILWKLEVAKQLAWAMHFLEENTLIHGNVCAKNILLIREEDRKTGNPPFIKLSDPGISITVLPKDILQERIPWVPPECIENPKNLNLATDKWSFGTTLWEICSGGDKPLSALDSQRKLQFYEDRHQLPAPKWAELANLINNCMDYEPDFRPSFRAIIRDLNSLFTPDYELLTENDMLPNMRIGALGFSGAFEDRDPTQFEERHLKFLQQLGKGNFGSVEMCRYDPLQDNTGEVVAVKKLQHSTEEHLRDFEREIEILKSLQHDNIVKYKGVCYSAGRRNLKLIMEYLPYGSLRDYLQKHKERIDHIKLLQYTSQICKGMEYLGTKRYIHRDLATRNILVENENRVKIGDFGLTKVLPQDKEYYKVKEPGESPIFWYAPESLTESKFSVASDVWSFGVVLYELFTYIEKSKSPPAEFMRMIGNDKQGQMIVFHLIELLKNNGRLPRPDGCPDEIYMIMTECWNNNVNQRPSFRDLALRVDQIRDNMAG
T1 sequence (P23443 whole entry): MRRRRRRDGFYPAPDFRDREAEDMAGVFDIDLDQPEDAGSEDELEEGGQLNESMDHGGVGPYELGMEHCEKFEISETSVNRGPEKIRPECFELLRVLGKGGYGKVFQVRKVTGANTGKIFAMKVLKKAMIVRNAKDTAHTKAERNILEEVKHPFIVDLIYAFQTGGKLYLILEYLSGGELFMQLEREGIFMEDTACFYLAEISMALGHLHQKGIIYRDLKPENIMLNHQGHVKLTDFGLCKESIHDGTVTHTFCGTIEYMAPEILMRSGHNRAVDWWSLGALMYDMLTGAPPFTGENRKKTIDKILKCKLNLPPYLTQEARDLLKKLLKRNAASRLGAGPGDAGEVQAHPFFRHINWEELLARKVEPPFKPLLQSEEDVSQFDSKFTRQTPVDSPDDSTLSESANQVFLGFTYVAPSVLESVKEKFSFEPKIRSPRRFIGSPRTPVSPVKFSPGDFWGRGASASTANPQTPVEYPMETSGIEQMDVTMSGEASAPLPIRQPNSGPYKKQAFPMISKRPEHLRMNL
T5 sequence (P36888 27-993): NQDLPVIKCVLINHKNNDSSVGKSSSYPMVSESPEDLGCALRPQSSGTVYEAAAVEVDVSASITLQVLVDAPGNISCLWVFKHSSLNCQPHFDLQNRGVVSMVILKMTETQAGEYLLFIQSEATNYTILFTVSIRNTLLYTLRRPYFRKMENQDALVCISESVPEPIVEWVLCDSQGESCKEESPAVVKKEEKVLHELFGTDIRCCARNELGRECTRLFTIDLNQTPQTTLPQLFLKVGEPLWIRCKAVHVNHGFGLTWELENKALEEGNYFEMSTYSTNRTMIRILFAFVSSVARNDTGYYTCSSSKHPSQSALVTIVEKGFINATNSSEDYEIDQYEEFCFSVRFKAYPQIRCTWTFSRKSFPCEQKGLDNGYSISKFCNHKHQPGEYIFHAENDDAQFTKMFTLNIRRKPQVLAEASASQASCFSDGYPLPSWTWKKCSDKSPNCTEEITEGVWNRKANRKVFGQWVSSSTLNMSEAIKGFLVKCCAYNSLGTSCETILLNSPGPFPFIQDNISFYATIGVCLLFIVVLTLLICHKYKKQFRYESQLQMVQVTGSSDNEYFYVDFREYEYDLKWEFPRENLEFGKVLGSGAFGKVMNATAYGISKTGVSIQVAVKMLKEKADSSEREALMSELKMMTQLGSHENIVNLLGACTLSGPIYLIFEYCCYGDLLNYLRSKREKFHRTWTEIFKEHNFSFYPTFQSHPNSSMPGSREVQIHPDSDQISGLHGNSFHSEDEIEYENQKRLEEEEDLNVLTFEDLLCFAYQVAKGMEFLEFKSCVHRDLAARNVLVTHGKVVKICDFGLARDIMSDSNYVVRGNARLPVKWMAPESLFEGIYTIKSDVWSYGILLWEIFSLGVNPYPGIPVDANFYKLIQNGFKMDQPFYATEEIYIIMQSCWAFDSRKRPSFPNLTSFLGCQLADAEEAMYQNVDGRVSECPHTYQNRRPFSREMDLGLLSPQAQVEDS

Turning to `CC(C)C[C@H](NC(=O)[C@H](CCc1ccccc1)NC(=O)CN1CCOCC1)C(=O)N[C@@H](Cc1ccccc1)C(=O)N[C@@H](CC(C)C)C(=O)[C@@]1(C)CO1` [NCGC00249613-02], the “VEGF_ADSC\ECFC Angio CD31 TubeArea IC50/EC50” value in [1] was 0.0204 µM. Further, in assay [2], the “WntCondMedia_bCatenin C2C12 IC50/EC50” value is 0.0292 µM. Besides, the “WntCondMedia_Alk Phos C2C12 IC50/EC50” value in [3] stood at 0.0152 µM. Moreover, in the assay with HeLa cells (2N), the “Hela CellCycMod PI 2N IC50/EC50” value is recorded as over 10 µM. Also, in the assay with HeLa cells (4N), the “Hela CellCycMod PI 4N IC50/EC50” value is given as over 10 µM. Also, the “Hela CellCycMod PI MI IC50/EC50” value in the assay on HeLa cells (MI) is recorded as over 10 µM. Moreover, in the assay on HeLa cells, the “Hela CellCycMod PI Cell Number IC50/EC50” value stood at 0.0099 µM. For the same compound, the “Basal_Viability ATP DLD-1 IC50/EC50” value in the assay with DLD-1 stood at 0.00696 µM. Moreover, the “Basal_Viability ATP HCT116 IC50/EC50” value in the assay with HCT116 is listed as 0.00558 µM. Further, the “GSK3b inh pretreated_Viability ATP HCT116 IC50/EC50” value in [4] was 0.00173 µM. For the same compound, the “Basal_Viability ATP HT-29 IC50/EC50” value with HT-29 came out at 0.00318 µM. In the assay on RKO, the “Basal_Viability ATP RKO IC50/EC50” value worked out at 0.00394 µM. In the assay with SNU-C1, the “Basal_Viability ATP SNU-C1 IC50/EC50” value is 0.00147 µM. Also, the “hp70S6K1 LANCE IC50/EC50” value on hp70S6K1 (RPS6KB1) is given as over 20 µM. The “hKDR LANCE IC50/EC50” value at hKDR was over 20 µM. Also, the “hJAK2 LANCE IC50/EC50” value at hJAK2 is recorded as over 20 µM. For the same compound, the “hGSK3b LANCE IC50/EC50” value on hGSK3b is reported as over 20 µM. The “hFLT3 LANCE IC50/EC50” value at hFLT3 is over 20 µM. The “VEGF_ADSC\ECFC Angio Hoechst NucArea IC50/EC50” value in assay [5] is reported as 0.2852 µM.
`Cc1nc(N)nc(N)c1-c1ccc(Cl)c(Cl)c1` [NCGC00253626-01]: the “WntCondMedia_bCatenin C2C12 IC50/EC50” value in assay [2] is 0.0504 µM. In addition, the “WntCondMedia_Alk Phos C2C12 IC50/EC50” value in assay [3] came out at 0.0299 µM. For the same compound, the “Hela CellCycMod PI 2N IC50/EC50” value with HeLa cells (2N) is over 10 µM. Moreover, the “Hela CellCycMod PI S Phase IC50/EC50” value with HeLa cells (assay number 15, S phase) was over 10 µM. Also, the “Hela CellCycMod PI 4N IC50/EC50” value in the assay with HeLa cells (4N) was over 10 µM. For the same compound, the “Hela CellCycMod PI MI IC50/EC50” value in the assay on HeLa cells (MI) was over 10 µM. Besides, in the assay with HeLa cells, the “Hela CellCycMod PI Cell Number IC50/EC50” value was 1.0068 µM. In addition, in the assay with DLD-1 (basal), the “Basal_Viability ATP DLD-1 IC50/EC50” value came out at 0.6337 µM. Besides, the “Basal_Viability ATP SW480 IC50/EC50” value in the assay on SW480 (assay number 24) is given as 0.512 µM. Further, the “Basal_Viability ATP HCT116 IC50/EC50” value with HCT116 is 0.4134 µM. For the same compound, in assay [4], the “GSK3b inh pretreated_Viability ATP HCT116 IC50/EC50” value turned out to be 0.05888 µM. In addition, the “Basal_Viability ATP Colo 320 IC50/EC50” value in the assay with Colo320 (assay number 27) came to 2.03 µM. The “Basal_Viability ATP HT-29 IC50/EC50” value in the assay with HT-29 (basal) is 0.9316 µM. The “Basal_Viability ATP RKO IC50/EC50” value in the assay on RKO (basal) is on record as 0.1171 µM. For the same compound, the “Basal_Viability ATP SNU-C1 IC50/EC50” value with SNU-C1 (basal) stood at 2.165 µM. Also, the “hp70S6K1 LANCE IC50/EC50” value on hp70S6K1 (RPS6KB1) is listed as over 20 µM. In addition, on hKDR, the “hKDR LANCE IC50/EC50” value is listed as over 20 µM. Also, the “hJAK2 LANCE IC50/EC50” value on hJAK2 was over 20 µM. Moreover, the “hGSK3b LANCE IC50/EC50” value on hGSK3b is over 20 µM. Moreover, the “hFLT3 LANCE IC50/EC50” value at hFLT3 is over 20 µM.
With `COC(=O)Nc1nc2ccc(C(=O)C3CC3)cc2[nH]1` [NCGC00262953-01], the “IC50/EC50, VEGF_ADSC\ECFC Angio CD31 TubeArea (assay number 2)” value in [1] is given as 1.1914 µM. Also, in [2], the “IC50/EC50, WntCondMedia_bCatenin C2C12 (assay number 5)” value is 0.3486 µM. Also, the “IC50/EC50, WntCondMedia_Alk Phos C2C12 (assay number 6)” value in [3] is recorded as 0.6836 µM. In the assay on HeLa cells (2N), the “IC50/EC50, Hela CellCycMod PI 2N (assay number 14)” value is reported as 0.4173 µM. In the assay on HeLa cells (4N), the “IC50/EC50, Hela CellCycMod PI 4N (assay number 16)” value is 0.4164 µM. Moreover, in the assay with HeLa cells (Cell Number), the “IC50/EC50, Hela CellCycMod PI Cell Number (assay number 18)” value is 0.2969 µM. Also, in the assay on HeLa cells (MI), the “IC50/EC50, Hela CellCycMod PI MI (assay number 17)” value is 0.4024 µM. For the same compound, in the assay on HeLa cells (S Phase), the “IC50/EC50, Hela CellCycMod PI S Phase (assay number 15)” value was over 10 µM. For the same compound, in the assay with SW480, the “IC50/EC50, Basal_Viability ATP SW480 (assay number 24)” value was over 20 µM. Besides, the “IC50/EC50, Basal_Viability ATP HCT116 (assay number 25)” value with HCT116 was determined as 0.1735 µM. Also, the “IC50/EC50, Basal_Viability ATP Colo 320 (assay number 27)” value with Colo320 was 0.1556 µM. Besides, in the assay with HT-29 (basal), the “IC50/EC50, Basal_Viability ATP HT-29 (assay number 28)” value amounted to 1.6823 µM. The “IC50/EC50, Basal_Viability ATP RKO (assay number 29)” value with RKO (basal) is 0.1622 µM. Further, the “IC50/EC50, Basal_Viability ATP SNU-C1 (assay number 30)” value in the assay with SNU-C1 (basal) is listed as over 20 µM. The “IC50/EC50, hp70S6K1 LANCE (assay number 31)” value against hp70S6K1 (RPS6KB1) was over 20 µM. Also, the “IC50/EC50, hKDR LANCE (assay number 32)” value against hKDR is recorded as 15.14 µM. Moreover, the “IC50/EC50, hJAK2 LANCE (assay number 33)” value at hJAK2 was over 20 µM. For the same compound, the “IC50/EC50, hGSK3b LANCE (assay number 34)” value against hGSK3b amounted to 14.94 µM. Moreover, the “IC50/EC50, hFLT3 LANCE (assay number 35)” value on hFLT3 is given as 6.14 µM. Further, in assay [5], the “IC50/EC50, VEGF_ADSC\ECFC Angio Hoechst NucArea (assay number 3)” value was over 10 µM.
